Values quoted from earlier work in patent publication US20090118293A1 (priority 2004, published 2009).
Structures can show the parent of a compound that is named as a salt.

Solubility in alcohol (alcohol)	Solubility in ether (ether)	Compound	Solubility in water	Solubility in organic solvents (organic solvents such as ethanol, ether and chloroform)
slightly soluble	very slightly soluble	NNc1nncc2ccccc12 [hydralazine hydrochloride]	soluble	
		O=[N+]([O-])O[C@H]1CO[C@H]2[C@@H]1OC[C@H]2O[N+](=O)[O-] [isosorbide dinitrate, 1,4,3,6-dianhydro-D-glucitol-2,5-dinitrate]	sparingly soluble	freely soluble
